# “Also recorded” adds a separate entry of the source.
# What was measured:
# [1] = Solubility in aqueous solutions; format: physicochemical
# topo IIα = topo IIα (Homo sapiens, UniProt P11388); assay: Topoisomerase II assay (DNA cleavage/relaxation); format: biochemical; conditions: 100 μM test compound
# From the text: The formation of linear DNA was detected by separating the SDS-treated reaction products using ethidium bromide gel electrophoresis and quantified by accounting for the relationship between fluorescence and relative band intensity for open circular (OC), linear (LNR), supercoiled (SC), and relaxed (RLX) configurations of DNA.
# Topoisomerase II Assay. […] The formation of linear DNA was detected by separating the SDS-treated reaction products using ethidium bromide gel electrophoresis by a modification of a previously described procedure (Hasinoff B B et al. Mol. Pharmacol. 2005, 67, 937-947). In this system, topo II-mediated catalytic conversion of supercoiled pBR322 DNA to the “relaxed” form of plasmic' DNA can also be observed. A 20 μL cleavage assay reaction mixture contained 250 ng topo IIα protein, 160 ng pBR322 plasmid DNA (NEB, Ipswich, Mass.), 1.0 mM ATP in assay buffer (10 mM Tris-HCl (pH 7.5), 50 mM KCl, 50 mM NaCl, 0.1 mM EDTA, 5 mM MgCl2, 2.5% glycerol), and 100 μM of test compounds or DMSO solvent, as indicated. Assay buffer (17 μL) and test compound/DMSO (1 μL) were mixed and allowed to sit at room temperature for 30 min after which 2 μL of topo IIα was added to initiate the reaction. Tubes were incubated at 37° C. for 15 min, and then quenched with 1% (v/v) SDS/10 mM disodium EDTA/200 mM NaCl. The mixture was treated subsequently with 0.77 mg/mL proteinase K (Sigma) at 55° C. for 60 min to digest the protein, and DNA bands were separated by electrophoresis (18 h at 2 V/cm) on an agarose gel (1.3% w/v) containing 0.7 μg/mL ethidium bromide in TAE buffer pH 8.0 (40 mM Tris base, 0.114% (v/v) glacial acetic acid, 2 mM EDTA). The DNA in the gel was imaged by its fluorescence on a Chemi-Doc XRS+ imager (Bio-Rad, Hercules, Calif.). Linear DNA was quantified by accounting for the relationship between fluorescence and relative band intensity for open circular (QC), linear (LNR), supercoiled (SC), and RLX (relaxed) configurations of DNA (Projan S J et al. Plasmid 1983, 9, 182-190), then calculating % of LNR from the total DNA content in each lane.
# [2] = tested on: HT-29 human colon cancer cells; assay: Cytotoxicity against HT-29 cells
# Description: The cytotoxicity of the test compounds was screened against HT-29 cells by a previously reported procedure (Ren Y et al. J. Nat. Prod 2011, 74, 1117-1125). Paclitaxel and etoposide were used as positive controls.
# All arylnaphthalene lignans isolated from P. poilanet in the present study and their semi-synthetic analogues were evaluated for their cytotoxicity against HT-29 human colon cancer cells, using paclitaxel as the positive control (Table 6) (Ren Y et al. J. Nat. Prod 2011, 74, 1117-1125).
# NF-κB p65 = assay: Immunoblotting of p65 and p-p65 in NK cells; format: cell-based, human; conditions: 10 μM TPCK, 10 μM PL-C and IL-12, 18 h
# Description: (A) Purified primary human NK cells were treated with 5 and 10 μM PL-C for 18 h. The cells were harvested and lysed for immunoblotting using p65 and p-p65 Abs. β-Actin immunoblotting was included as the internal control. Data shown are for treatment with PL-C alone (top panel) or in combination with IL-12 (10 ng/mL) (middle panel) or IL-15 (100 ng/mL) (bottom panel) and are the representative plots of four donors with similar results. Numbers under each lane represent quantification of p-p65 or p65 via densitometry, after normalizing to β-actin. (B) NKL cells were treated, and data are presented as described in (A). Data from one of three independent experiments with similar results are shown. (C) Purified primary human NK (left panel) or NKL cells (right panel) were cotreated with 10 μM PL-C and IL-12 (10 ng/mL) in the presence or absence of the NF-κB inhibitor TPCK (10 μM) for 18 h. Supernatants were assayed for IFN-γ secretion by ELISA (top panel), and cells were harvested and lysed for immunoblotting of p-p65 (bottom panel). Representative data from one of three donors with the similar data (left panel) and the summary of three independent experiments with similar results (right panel) are shown. **p<0.01. Error bars represent SD.
# Immunoblotting. Immunoblotting was performed as described previously (Yu J et al. Immunity 2006, 24, 575-590; Yu J et al. Blood 2010, 115, 274-281). […]
# human primary NK cells = assay: IFN-γ production by NK cells (intracellular flow cytometry, ELISA); format: cell-based; conditions: 10 μM TPCK, 10 μM PL-C and IL-12, 18 h
# Description: (A) Chemical structure of PL-C (phyllanthusmin C, 4), (9) Healthy donor PBMCs (left panel) or enriched NK cells (right panel) were treated with DMSO vehicle control or 10 μM PL-C for 18 h in the presence of […] (10 ng/mL) or IL-15 (100 ng/mL). The cells were harvested and analyzed by intracellular flow cytometry to determine the frequency of IFN-γ^+ cells in CD56^+CD3^− NK cells (n=8 for PBMC and n=5 for enriched NK). (C) Highly purified (≧99.5%) human primary NK cells were treated with 10 μM PL-C for 18 h to determine the levels of IFN-γ secretion by ELISA. IFN-γ secretion from treatment with PL-C alone (left panel) or in combination with IL-12 (10 ng/mL, middle panel) or IL-15 (100 ng/mL, right panel) is shown. (D) Cells were treated as described in (C) and harvested at 12 h, IFNG mRNA expression was assessed by real-time RT-PCR, and the relative IFNG mRNA expression of each treatment was normalized to untreated vehicle control in the same donor. Data are shown as mean±SEM (n=6 in each treatment; error bars represent SEM). *p<0.05, **p<0.01, which denote statistical comparison between the two marked treatment groups (B-D). (E) Highly purified (≧99,5%) primary human NK cells were treated with 10 μM. PL-C in combination with various concentrations of IL-12 (10, 1, and 0.1 ng/mL) or IL-15 (100, 10, and 1 ng/mL) for 24 h to determine the levels of IFN-γ secretion. Representative data from one of three donors with the similar data are shown. *p<0.05, **p<0.01, which denote statistical comparison between the two marked treatment groups and are calculated from data of all tested donors. Error bars represent SD. […]
# Isolation of PBMCs and NK cells. […] The purity of enriched NK cells was ≧80% assessed by flow cytometric analysis after staining with CD56-allophycocyanin and CD3-FITC Abs (BD Bio-sciences, San Jose, Calif.). […] The purity of magnetic bead-purified NK cells was ≧99.5%, as determined by the aforementioned flow cytometric analysis. […]
# topo IIα, sequence (P11388 whole entry): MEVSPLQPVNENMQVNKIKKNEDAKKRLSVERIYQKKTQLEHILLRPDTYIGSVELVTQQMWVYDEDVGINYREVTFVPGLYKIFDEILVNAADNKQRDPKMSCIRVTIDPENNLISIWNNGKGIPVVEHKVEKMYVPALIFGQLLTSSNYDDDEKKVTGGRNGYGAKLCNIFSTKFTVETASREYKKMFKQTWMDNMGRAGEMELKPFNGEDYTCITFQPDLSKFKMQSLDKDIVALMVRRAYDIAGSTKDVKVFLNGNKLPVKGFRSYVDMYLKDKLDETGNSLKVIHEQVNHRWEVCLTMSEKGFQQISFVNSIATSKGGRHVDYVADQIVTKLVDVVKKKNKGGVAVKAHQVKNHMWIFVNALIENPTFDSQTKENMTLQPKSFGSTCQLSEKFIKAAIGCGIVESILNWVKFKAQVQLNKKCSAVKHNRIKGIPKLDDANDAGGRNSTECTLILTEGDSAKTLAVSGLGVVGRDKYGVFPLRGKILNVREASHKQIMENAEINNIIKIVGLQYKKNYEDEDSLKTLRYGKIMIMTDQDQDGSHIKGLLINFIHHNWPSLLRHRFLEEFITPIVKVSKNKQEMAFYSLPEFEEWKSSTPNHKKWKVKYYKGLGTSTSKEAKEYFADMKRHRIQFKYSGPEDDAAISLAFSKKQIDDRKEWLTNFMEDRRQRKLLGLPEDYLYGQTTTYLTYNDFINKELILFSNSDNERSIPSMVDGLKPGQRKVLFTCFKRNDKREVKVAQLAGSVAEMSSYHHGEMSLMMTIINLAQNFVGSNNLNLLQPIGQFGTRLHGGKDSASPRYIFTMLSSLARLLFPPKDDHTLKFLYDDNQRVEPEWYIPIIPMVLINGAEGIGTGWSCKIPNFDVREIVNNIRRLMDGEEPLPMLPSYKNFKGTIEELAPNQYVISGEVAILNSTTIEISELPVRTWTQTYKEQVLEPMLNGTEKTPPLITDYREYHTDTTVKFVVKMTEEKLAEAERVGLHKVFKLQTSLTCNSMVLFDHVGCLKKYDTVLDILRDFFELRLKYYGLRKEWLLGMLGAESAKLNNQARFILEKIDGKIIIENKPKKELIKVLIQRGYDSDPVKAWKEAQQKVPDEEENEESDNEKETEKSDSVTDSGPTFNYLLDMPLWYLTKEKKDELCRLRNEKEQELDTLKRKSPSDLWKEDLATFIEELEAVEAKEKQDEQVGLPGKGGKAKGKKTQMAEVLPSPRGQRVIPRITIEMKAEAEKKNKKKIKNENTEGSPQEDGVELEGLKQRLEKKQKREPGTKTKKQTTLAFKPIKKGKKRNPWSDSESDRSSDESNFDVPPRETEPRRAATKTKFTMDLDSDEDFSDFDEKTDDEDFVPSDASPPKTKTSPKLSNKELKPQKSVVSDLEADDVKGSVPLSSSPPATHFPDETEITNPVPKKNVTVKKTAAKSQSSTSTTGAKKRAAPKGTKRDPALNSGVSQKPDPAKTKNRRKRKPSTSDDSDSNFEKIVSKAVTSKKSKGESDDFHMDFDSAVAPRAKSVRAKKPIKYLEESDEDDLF
Compound,solubility in aqueous solutions [1],topo IIα inhibition (in words) (topo IIα),"EC50 ([2]; read-out: ED50, toxicity towards HT-29 cells, natural samples)","IC50 ([2]; read-out: IC50, cytotoxicity toward HT-29 cells)",effect on PL-C-induced p65 phosphorylation (NF-κB p65),effect on PL-C-induced IFN-γ secretion (human primary NK cells)
"COc1cc2c(O[C@@H]3OC[C@H](OC(C)=O)[C@H](OC(C)=O)[C@H]3OC(C)=O)c3c(c(-c4ccc5c(c4)OCO5)c2cc1OC)C(=O)OC3 [Compound 7, 7-O-((2,3,4-tri-O-acetyl)-α-L-arabinopyranosyl) diphyllin]",insoluble in aqueous solutions,not topo Ha inhibitors; also recorded: not topo IIα inhibitors,110 nM,110 nM,,
"N-tosyl-L-phenylalanine chloromethyl ketone [TPCK, reference compound]",,,,,inhibited PL-C-induced p65 phosphorylation,inhibition of PL-C-induced IFN-γ secretion

# Source: patent US20170119806A1, “[…] LACTONE DERIVATIVES AND METHODS OF MAKING AND USING THEREOF” (OHIO STATE INNOVATION FOUNDATION, priority 2014, published 2017)
